Assay results: ChEMBL document CHEMBL5634096, “Design, synthesis and bioevaluation of PI3Kα-selective inhibitors as potential colorectal cancer drugs” (Eur J Med Chem, 2023)
Activity calls are given as the source filed them. The rule behind the calls is not given here.

Columns and labels:
[1] = target: Cytochrome P450 3A4 (Homo sapiens, UniProt P08684); assay: Inhibition of CYP3A4 in human liver microsomes using midazolam as substrate pre-incubated for 30 mins followed by substrate addition and measured after 15 mins in presence of NADPH by LC/MS analysis; type: ADME, Microsome
Sequence of Cytochrome P450 3A4 (P08684 whole entry): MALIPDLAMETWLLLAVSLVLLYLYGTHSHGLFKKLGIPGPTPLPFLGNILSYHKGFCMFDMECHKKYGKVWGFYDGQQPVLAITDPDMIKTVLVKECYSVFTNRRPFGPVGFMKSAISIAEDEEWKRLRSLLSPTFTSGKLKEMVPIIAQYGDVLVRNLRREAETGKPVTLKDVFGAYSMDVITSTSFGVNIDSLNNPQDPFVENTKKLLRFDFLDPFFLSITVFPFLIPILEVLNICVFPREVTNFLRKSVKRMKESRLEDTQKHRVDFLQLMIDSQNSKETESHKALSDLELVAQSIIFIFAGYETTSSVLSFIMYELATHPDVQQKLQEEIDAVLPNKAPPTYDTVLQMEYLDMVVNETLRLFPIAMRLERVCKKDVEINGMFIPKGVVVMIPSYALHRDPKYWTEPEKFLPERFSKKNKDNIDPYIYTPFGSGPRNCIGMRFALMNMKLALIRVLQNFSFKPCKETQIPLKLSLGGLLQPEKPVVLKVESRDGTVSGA

[2] = system: HCT-116; assay: Induction of apoptosis in human HCT-116 cells assessed as increased total apoptotic cells at 6 uM incubated for 48 hrs by Annexin V-FITC and propidium iodide staining based flow cytometry analysis (reference value: 4.22 %); type: functional
[3] = Clearance in Sprague-Dawley rat at 5 mg/kg, iv measured upto 24 hrs by LC-MS analysis; type: ADME, organism-based; settings: in vivo
[4] = Metabolic stability in Sprague-Dawley rat plasma assessed as compound remaining measured upto 3 hrs by LC-MS/MS analysis; type: ADME, cell-free
[5] = Metabolic stability in Sprague-Dawley rat liver microsomes assessed as compound remaining at 5 ug/ml incubated for 1 hr in presence of NADPH by LC-MS/MS analysis; type: ADME, Microsome; settings: at 5 µg/mL, read-out: Stability
[6] = target: Phosphatidylinositol 4,5-bisphosphate 3-kinase catalytic subunit beta isoform (Homo sapiens, UniProt P42338); assay: Inhibition of PI3Kbeta (unknown origin) by ADP-Glo luminescent kinase assay
Sequence of Phosphatidylinositol 4,5-bisphosphate 3-kinase catalytic subunit beta isoform (P42338 whole entry, canonical isoform): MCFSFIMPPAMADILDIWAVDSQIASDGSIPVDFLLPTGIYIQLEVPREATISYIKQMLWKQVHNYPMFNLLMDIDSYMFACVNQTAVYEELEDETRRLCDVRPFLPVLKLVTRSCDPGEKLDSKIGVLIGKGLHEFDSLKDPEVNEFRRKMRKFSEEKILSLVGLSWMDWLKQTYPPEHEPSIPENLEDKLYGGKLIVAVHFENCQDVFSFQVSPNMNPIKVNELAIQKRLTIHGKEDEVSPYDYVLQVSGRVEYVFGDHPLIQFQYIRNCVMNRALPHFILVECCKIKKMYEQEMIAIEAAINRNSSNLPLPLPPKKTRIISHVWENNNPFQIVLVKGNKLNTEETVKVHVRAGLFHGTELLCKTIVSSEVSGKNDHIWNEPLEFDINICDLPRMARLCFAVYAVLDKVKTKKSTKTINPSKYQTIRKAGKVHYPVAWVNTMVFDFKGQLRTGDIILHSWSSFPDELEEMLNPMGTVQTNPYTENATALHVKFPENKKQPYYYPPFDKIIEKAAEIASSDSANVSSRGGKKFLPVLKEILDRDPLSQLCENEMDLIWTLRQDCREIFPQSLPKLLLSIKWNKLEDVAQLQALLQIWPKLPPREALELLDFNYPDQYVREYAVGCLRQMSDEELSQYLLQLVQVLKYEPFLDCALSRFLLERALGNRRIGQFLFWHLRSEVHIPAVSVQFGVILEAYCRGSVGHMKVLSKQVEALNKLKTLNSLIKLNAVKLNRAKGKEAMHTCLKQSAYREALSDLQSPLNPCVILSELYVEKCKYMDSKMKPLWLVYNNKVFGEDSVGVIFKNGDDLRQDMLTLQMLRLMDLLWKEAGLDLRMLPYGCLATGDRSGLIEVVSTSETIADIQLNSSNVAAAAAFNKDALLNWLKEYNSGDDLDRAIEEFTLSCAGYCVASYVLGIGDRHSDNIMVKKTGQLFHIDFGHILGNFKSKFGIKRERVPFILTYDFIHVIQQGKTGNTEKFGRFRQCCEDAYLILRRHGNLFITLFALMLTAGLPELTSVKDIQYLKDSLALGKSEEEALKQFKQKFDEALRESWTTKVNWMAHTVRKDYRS

[7] = target: T1, Phosphatidylinositol 4,5-bisphosphate 3-kinase catalytic subunit delta isoform (Homo sapiens, UniProt O00329); assay: Inhibition of PI3Kdelta (unknown origin) by ADP-Glo luminescent kinase assay
T1 sequence (O00329 whole entry): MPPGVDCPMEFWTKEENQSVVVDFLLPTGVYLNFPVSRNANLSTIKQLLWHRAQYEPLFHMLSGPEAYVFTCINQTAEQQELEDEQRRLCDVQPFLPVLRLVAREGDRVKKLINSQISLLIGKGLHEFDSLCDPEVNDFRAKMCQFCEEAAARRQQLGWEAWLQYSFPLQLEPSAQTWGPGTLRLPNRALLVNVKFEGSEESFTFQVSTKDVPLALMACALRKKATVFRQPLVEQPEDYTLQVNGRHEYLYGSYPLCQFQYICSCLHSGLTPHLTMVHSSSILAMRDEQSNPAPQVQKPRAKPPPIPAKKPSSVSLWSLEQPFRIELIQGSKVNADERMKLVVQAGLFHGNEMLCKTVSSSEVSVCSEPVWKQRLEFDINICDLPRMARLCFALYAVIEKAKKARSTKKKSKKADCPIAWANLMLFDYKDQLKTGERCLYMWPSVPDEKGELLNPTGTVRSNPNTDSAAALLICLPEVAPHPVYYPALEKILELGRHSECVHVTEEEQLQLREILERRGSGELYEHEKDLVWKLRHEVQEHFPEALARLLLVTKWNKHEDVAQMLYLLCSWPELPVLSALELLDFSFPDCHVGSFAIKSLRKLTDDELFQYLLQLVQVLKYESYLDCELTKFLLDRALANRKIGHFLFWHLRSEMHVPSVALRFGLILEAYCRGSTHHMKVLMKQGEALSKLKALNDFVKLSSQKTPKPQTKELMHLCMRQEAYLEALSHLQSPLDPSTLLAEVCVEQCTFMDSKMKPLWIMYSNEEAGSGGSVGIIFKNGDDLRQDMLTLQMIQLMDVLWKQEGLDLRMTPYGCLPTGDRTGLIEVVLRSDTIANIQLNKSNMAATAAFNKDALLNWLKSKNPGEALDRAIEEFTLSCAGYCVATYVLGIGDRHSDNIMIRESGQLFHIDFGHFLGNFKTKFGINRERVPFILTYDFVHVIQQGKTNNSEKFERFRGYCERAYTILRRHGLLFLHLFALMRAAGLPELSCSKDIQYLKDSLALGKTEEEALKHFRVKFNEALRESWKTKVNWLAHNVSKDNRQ

[8] = Cytotoxicity against human NCM460 cells assessed as reduction in cell viability incubated for 24 to 48 hrs by CCK-8 assay; type: toxicity, cell-based
[9] = Cmax in Sprague-Dawley rat at 5 mg/kg, iv measured upto 24 hrs by LC-MS analysis; type: ADME, organism-based; settings: in vivo
[10] = system: MCF7; assay: Antiproliferative activity against human MCF7 cells expressing PIK3CA with E545K mutation assessed as reduction in cell viability incubated for 24 to 48 hrs by CCK-8 assay; type: functional, cell-based
[11] = target: Phosphatidylinositol 4,5-bisphosphate 3-kinase catalytic subunit gamma isoform (Homo sapiens, UniProt P48736); assay: Inhibition of PI3Kgamma (unknown origin) by ADP-Glo luminescent kinase assay
[12] = Metabolic stability in Sprague-Dawley rat liver microsomes assessed as half life at 5 ug/ml incubated for 1 hr in presence of NADPH by LC-MS/MS analysis; type: ADME, Microsome; settings: dose 5 µg/ml
[13] = system: HCT-116; assay: Antiproliferative activity against human HCT-116 cells expressing PIK3CA with H1047R mutation assessed as reduction in cell viability incubated for 24 to 48 hrs by CCK-8 assay; type: functional, cell-based
[14] = Metabolic stability in Sprague-Dawley rat liver microsomes assessed as intrinsic clearance at 5 ug/ml incubated for 1 hr in presence of NADPH by LC-MS/MS analysis; type: ADME, Microsome; settings: dose 5 µg/ml
[15] = AUC (0 to t) in Sprague-Dawley rat at 5 mg/kg, iv measured upto 24 hrs by LC-MS analysis; type: ADME, organism-based; settings: in vivo
[16] = target: Cytochrome P450 1A2 (Homo sapiens, UniProt P05177); assay: Inhibition of CYP1A2 in human liver microsomes using phenacetin as substrate pre-incubated for 30 mins followed by substrate addition and measured after 15 mins in presence of NADPH by LC/MS analysis; type: ADME, Microsome
Sequence of Cytochrome P450 1A2 (P05177 whole entry): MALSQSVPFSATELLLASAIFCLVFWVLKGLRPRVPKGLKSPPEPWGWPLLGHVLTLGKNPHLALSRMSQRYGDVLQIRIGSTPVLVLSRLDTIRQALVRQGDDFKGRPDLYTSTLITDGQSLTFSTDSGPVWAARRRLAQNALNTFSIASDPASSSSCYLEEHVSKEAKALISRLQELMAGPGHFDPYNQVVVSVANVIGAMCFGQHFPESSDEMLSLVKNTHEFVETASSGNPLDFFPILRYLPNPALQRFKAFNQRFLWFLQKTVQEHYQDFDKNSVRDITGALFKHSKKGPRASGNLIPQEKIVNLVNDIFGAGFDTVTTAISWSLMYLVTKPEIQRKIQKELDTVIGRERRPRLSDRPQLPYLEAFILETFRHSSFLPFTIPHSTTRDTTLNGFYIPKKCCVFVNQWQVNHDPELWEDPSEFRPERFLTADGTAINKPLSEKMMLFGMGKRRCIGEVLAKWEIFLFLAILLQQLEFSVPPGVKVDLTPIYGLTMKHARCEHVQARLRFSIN

[17] = MRT (0 to infinity) in Sprague-Dawley rat at 5 mg/kg, iv measured upto 24 hrs by LC-MS analysis; type: ADME, organism-based; settings: in vivo
[18] = system: HCT-116; assay: Antiproliferative activity against human HCT-116 cells assessed as reduction in cell viability incubated for 48 hrs by CCK-8 assay; type: functional, cell-based; settings: dose 20-80 µM
[19] = target: Cytochrome P450 2C19 (Homo sapiens, UniProt P33261); assay: Inhibition of CYP2C19 in human liver microsomes using omeprazole as substrate pre-incubated for 30 mins followed by substrate addition and measured after 15 mins in presence of NADPH by LC/MS analysis; type: ADME, Microsome
Sequence of Cytochrome P450 2C19 (P33261 whole entry): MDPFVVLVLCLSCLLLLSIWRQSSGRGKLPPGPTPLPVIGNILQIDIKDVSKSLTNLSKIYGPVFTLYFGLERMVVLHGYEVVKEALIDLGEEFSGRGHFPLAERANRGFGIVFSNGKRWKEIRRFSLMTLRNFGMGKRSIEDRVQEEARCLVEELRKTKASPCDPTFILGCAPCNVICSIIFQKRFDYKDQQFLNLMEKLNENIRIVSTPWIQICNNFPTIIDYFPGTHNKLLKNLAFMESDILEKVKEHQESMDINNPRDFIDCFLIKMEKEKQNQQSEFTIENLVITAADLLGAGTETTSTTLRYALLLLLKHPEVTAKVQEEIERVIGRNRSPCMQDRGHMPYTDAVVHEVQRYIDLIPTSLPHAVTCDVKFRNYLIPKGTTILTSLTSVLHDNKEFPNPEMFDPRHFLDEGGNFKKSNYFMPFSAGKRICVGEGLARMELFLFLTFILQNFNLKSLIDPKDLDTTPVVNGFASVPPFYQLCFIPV

[20] = system: HCT-116; assay: Antiproliferative activity against human HCT-116 cells assessed as inhibition of colony formation at 6 uM incubated for 48 hrs by crystal violet staining based assay; type: functional, cell-based
[21] = system: SW-620; assay: Antiproliferative activity against human SW-620 cells assessed as reduction in cell viability incubated for 24 to 48 hrs by CCK-8 assay; type: functional, cell-based
[22] = system: MDA-MB-231; assay: Antiproliferative activity against human MDA-MB-231 cells assessed as reduction in cell viability incubated for 24 to 48 hrs by CCK-8 assay; type: functional, cell-based
[23] = Metabolic stability in artificial gastrointestinal fluid assessed as compound remaining measured upto 8 hrs by LC-MS/MS analysis; type: ADME
[24] = target: Cytochrome P450 2D6 (Homo sapiens, UniProt P10635); assay: Inhibition of CYP2D6 in human liver microsomes using dextromethorphan as substrate pre-incubated for 30 mins followed by substrate addition and measured after 15 mins in presence of NADPH by LC/MS analysis; type: ADME, Microsome
Sequence of Cytochrome P450 2D6 (P10635 whole entry): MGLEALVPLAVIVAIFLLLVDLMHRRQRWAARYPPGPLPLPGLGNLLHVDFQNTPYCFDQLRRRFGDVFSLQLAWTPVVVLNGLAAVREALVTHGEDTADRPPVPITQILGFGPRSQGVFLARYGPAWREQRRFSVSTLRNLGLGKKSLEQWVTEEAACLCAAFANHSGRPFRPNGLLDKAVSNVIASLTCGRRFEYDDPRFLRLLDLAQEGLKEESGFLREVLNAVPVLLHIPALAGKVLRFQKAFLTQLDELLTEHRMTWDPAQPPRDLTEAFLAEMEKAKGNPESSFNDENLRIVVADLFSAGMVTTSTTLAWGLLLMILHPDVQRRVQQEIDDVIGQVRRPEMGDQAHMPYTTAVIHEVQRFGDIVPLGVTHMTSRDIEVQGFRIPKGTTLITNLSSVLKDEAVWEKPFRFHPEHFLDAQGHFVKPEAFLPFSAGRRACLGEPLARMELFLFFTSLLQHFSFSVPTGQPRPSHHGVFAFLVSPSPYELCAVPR

[25] = MRT (0 to t) in Sprague-Dawley rat at 5 mg/kg, iv measured upto 24 hrs by LC-MS analysis; type: ADME, organism-based; settings: in vivo
[26] = target: Cytochrome P450 2C9 (Homo sapiens, UniProt P11712); assay: Inhibition of CYP2C9 in human liver microsomes using tolbutamide as substrate pre-incubated for 30 mins followed by substrate addition and measured after 15 mins in presence of NADPH by LC/MS analysis; type: ADME, Microsome
Sequence of Cytochrome P450 2C9 (P11712 whole entry, canonical isoform): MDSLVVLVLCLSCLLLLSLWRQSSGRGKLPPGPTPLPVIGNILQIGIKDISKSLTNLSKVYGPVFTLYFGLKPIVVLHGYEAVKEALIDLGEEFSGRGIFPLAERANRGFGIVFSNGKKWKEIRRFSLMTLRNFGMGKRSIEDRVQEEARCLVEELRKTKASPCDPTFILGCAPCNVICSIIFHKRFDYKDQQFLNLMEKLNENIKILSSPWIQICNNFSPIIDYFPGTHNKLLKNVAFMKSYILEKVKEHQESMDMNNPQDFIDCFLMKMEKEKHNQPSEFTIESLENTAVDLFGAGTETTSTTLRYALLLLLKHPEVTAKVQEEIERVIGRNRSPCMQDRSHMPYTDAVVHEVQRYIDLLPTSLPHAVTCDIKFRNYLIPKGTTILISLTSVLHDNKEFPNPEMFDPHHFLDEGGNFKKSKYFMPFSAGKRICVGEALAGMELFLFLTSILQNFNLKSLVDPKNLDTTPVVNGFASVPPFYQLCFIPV

[27] = target: Phosphatidylinositol 4,5-bisphosphate 3-kinase catalytic subunit alpha isoform (Homo sapiens, UniProt P42336); assay: Inhibition of PI3Kalpha (unknown origin) by ADP-Glo luminescent kinase assay
Sequence of Phosphatidylinositol 4,5-bisphosphate 3-kinase catalytic subunit alpha isoform (P42336 whole entry, canonical isoform): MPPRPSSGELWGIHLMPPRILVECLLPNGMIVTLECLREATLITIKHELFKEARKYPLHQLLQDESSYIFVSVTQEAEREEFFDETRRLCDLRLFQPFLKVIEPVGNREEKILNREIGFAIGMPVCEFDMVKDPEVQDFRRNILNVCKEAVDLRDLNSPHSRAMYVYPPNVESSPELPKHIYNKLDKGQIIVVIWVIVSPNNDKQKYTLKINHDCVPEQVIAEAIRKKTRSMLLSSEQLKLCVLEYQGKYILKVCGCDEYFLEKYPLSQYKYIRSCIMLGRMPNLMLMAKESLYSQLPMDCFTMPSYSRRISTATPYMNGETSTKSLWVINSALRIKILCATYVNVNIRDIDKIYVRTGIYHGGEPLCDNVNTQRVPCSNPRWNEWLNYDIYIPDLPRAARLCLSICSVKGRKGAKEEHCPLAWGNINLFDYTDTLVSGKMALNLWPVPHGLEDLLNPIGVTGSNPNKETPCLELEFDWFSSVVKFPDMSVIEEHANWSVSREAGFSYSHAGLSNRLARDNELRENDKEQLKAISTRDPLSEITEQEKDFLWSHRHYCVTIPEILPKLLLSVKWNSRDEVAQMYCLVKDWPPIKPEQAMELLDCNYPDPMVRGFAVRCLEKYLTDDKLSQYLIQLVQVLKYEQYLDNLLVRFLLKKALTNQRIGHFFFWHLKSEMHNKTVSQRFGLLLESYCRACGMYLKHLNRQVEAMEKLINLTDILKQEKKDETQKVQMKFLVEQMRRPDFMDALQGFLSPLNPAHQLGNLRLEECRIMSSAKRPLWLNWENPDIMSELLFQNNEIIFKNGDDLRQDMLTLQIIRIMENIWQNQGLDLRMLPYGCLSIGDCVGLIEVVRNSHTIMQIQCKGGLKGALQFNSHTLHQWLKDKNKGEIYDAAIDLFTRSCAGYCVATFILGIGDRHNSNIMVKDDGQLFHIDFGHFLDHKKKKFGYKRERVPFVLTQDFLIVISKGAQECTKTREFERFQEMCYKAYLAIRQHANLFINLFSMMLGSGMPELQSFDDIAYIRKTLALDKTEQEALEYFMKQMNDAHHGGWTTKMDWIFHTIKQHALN

[28] = AUC (0 to infinity) in Sprague-Dawley rat at 5 mg/kg, iv measured upto 24 hrs by LC-MS analysis; type: ADME, organism-based; settings: in vivo
[29] = Cytotoxicity against human MCF-10A cells assessed as reduction in cell viability incubated for 24 to 48 hrs by CCK-8 assay; type: toxicity, cell-based
[30] = Half life in Sprague-Dawley rat at 5 mg/kg, iv measured upto 24 hrs by LC-MS analysis; type: ADME, organism-based; settings: in vivo
[31] = system: MCF7; assay: Antiproliferative activity against human MCF7 cells assessed as reduction in cell viability incubated for 24 to 48 hrs by CCK-8 assay; type: functional, cell-based
[32] = system: HCT-116; assay: Antiproliferative activity against human HCT-116 cells assessed as reduction in cell viability incubated for 24 to 48 hrs by CCK-8 assay; type: functional, cell-based
[33] = Volume of distribution in Sprague-Dawley rat at 5 mg/kg, iv measured upto 24 hrs by LC-MS analysis; type: ADME, organism-based; settings: in vivo

## Nc1nc2cc(-c3ccc4ncc(C(=O)N5CCOCC5)n4c3)ccc2o1 [SERABELISIB]
[1]
  IC50: > 10 µM
[2]
  Activity: 11.68%
[3]
  clearance: 11.7 mL/min/kg
[4]
  Stability: Stable
[5]
  remaining at 1 h, 5 ug/ml: 86.2%
[6]
  IC50: 0.594 µM
[7]
  IC50: 0.328 µM
[8]
  IC50: 29 µM
[9]
  Cmax: 1680 ng/mL
[10]
  IC50: 3.76 µM
[11]
  IC50: 0.402 µM
[12]
  half-life at 5 ug/ml: 4.44 h
[13]
  IC50: 14.1 µM
[14]
  CLH: 5 µL/min/mg
[15]
  AUC(0-t) at 24 h: 7120 ng·h/mL
[16]
  IC50: > 10 µM
[17]
  MRT inf: 7.9 h
[18]
  Activity: Dose-Dependent Effect
[19]
  IC50: > 10 µM
[20]
  Activity: Active
[21]
  IC50: 9.99 µM
[22]
  IC50: 15.8 µM
[23]
  Stability: Stable
[24]
  IC50: > 10 µM
[25]
  MRT last at 24 h: 6.5 h
[26]
  IC50: > 10 µM
[27]
  IC50: 0.011 µM
[28]
  AUC(0-inf): 7520 ng·h/mL
[29]
  IC50: 34.1 µM
[30]
  half-life: 5.9 h
[31]
  IC50: 0.64 µM
[32]
  IC50: 5.8 µM
[33]
  Vd: 5.6 L/kg
